The test system of one data set is RV venom PLA2. Kind of data set: Indirect haemolytic activity (RV venom PLA2 inhibition). The format is biochemical, Vipera russelli. Particulars: 1 μg RV venom pre-incubated with compound 10 min at 37°C, NS: Not Significant.
Another data set deals with VRV-PLA2-VIII (Daboia russelii, UniProt P59071). Nature of the data set: biochemical. Further details: species or system Vipera russelli.

Data on 12 compounds can be found in publication PMC4511007 (PLoS ONE, 2015).

SMILES strings stand for the structures. Read-outs that look alike come from different tables or passages of the source.

VRV-PLA2-VIII, sequence (P59071 whole entry, looked up): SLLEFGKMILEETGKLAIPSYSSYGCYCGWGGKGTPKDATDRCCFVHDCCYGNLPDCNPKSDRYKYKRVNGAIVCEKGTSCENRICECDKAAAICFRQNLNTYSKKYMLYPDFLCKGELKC

Consider `CC(=O)c1c(C)nc2c(-c3ccc(Cl)c(C(F)(F)F)c3)cccn12` [3a, 1-(8-(4-chloro-3-(trifluoromethyl)phenyl)-2-methylimidazo[1,2-a]pyridin-3-yl)ethanone], for which the melting point lay in the range of 141 to 143 °C. Moreover, the IC50 with RV venom PLA2 turned out to be 110 µM. This compound showed an IC50 on VRV-PLA2-VIII of 155 µM.
In the same order, the values of `COc1cccc(-c2cccn3c(C(C)=O)c(C)nc23)c1F` [3i, 1-(8-(2-fluoro-3-methoxyphenyl)-2-methylimidazo[1,2-a]pyridin-3-yl)ethanone] are 190 to 192 °C, 123 µM and 135 µM.
In the case of `CC(=O)c1c(C)nc2c(-c3ccccc3)cccn12` [3c, 1-(2-methyl-8-phenylimidazo[1,2-a]pyridin-3-yl)ethanone], the melting point was 160 to 162 °C. In addition, in the data set with RV venom PLA2, the IC50 came out at 194 µM.
In the case of `COc1cccc(-c2cccn3c(C(C)=O)c(C)nc23)c1` [3e, 1-(8-(3-methoxyphenyl)-2-methylimidazo[1,2-a]pyridin-3-yl)ethanone], the melting point was in the range of 116 to 119 °C. In the data set on RV venom PLA2, the IC50 came to 46.4 µM. In addition, the IC50 on VRV-PLA2-VIII worked out at 65.3 µM.
In the same order, the values of `CC(=O)c1c(C)nc2c(-c3ccc(OCc4ccccc4)c(F)c3)cccn12` [3b, 1-(8-(4-(benzyloxy)-3-fluorophenyl)-2-methylimidazo[1,2-a]pyridin-3-yl)ethanone] are 154 to 156 °C, > 500 µM and 140 µM.
For `CC(=O)c1c(C)nc2c(-c3cccc4ccccc34)cccn12` [3f, 1-(2-methyl-8-(naphthalen-1-yl)imidazo[1,2-a]pyridin-3-yl)ethanone], in that order: 179 to 182 °C, 14.3 µM and 23.1 µM.
`CCC(CCc1cccn2c(C(C)=O)c(C)nc12)C(=O)NC1CCCC1` (centres unmarked) [3h, 4-(3-acetyl-2-methylimidazo[1,2-a]pyridin-8-yl)-N-cyclopentyl-2-ethylbutanamide] yielded a melting point of 117 to 119 °C. Moreover, in the data set with RV venom PLA2, the IC50 was determined as 105 µM. For the same compound, the IC50 on VRV-PLA2-VIII came to 114 µM.
In the same order, the values of `CC(=O)c1c(C)nc2c(-c3ccc(Cl)cc3)cccn12` [3g, 1-(8-(4-chlorophenyl)-2-methylimidazo[1,2-a]pyridin-3-yl)ethanone] are 111 to 114 °C, 219 µM and 195 µM.
Turning to `CC(=O)c1c(C)nc2c(-c3ccc(C(F)(F)F)cc3)cccn12` [3k, 1-(2-methyl-8-(4-(trifluoromethyl)phenyl)imidazo[1,2-a]pyridin-3-yl)ethanone], the melting point lay in the range of 121 to 123 °C. Further, in the data set on RV venom PLA2, the IC50 was > 500 µM. For the same compound, the IC50 at VRV-PLA2-VIII (read-out: IC50 (μM) VRV-PLA2-VIII) was > 100 µM.
As to `CC(=O)c1c(C)nc2c(-c3cccc(Cl)c3)cccn12` [3d, 1-(8-(3-chlorophenyl)-2-methylimidazo[1,2-a]pyridin-3-yl)ethanone], the melting point lay in the range of 114 to 116 °C. Besides, the IC50 in the data set with RV venom PLA2 was 59.1 µM. Also, it took 89.1 µM to reach half-maximal inhibition against VRV-PLA2-VIII (IC50).
For `CC(=O)c1c(C)nc2c(-c3ccccc3C)cccn12` [3j, 1-(2-methyl-8-(o-tolyl)imidazo[1,2-a]pyridin-3-yl)ethanone], in that order: 157 to 159 °C, 166 µM and 189 µM.
For `CCc1ccc(-c2cccn3c(C(C)=O)c(C)nc23)cc1` [3l, 1-(8-(4-ethylphenyl)-2-methylimidazo[1,2-a]pyridin-3-yl)ethanone], in that order: 169 to 172 °C, > 500 µM and 43.2 µM.
